# Assay results: patent US20210023065A1, “AMPHIPHILIC THIOL COMPOUNDS AND USES THEREOF” (THE REGENTS OF THE UNIVERSITY OF CALIFORNIA, priority 2018, published 2021)
# Legend:
# Assay type in all cases: cell-based
# [1] = target: T1, EGFP-HRas (Homo sapiens, UniProt P01112); assay: Live-cell imaging of EGFP-HRas localization in HeLa cells; settings: HeLa cells, 1.25 μmol/10^7 cells, 20 min
# T1 construct: host or cells: HeLa
# Description: Imaging was performed on an Axio Observer Z1 inverted microscope (Carl Zeiss Microscopy Gmb, Germany) with Yokogawa CSU-X1 spinning disk confocal unit using a 63×, 1.4 NA oil immersion or 20×, 0.8 NA objective to an ORCA-Flash4.0 V2 Digital CMOS camera (Hamamatsu, Japan). For live cell imaging, an incubation chamber with temperature and CO2 controllers (World Precision Instruments) was utilized. Fluorophores were excited with s diode laser (488 nm; 30 mW). Images were acquired using Zen Blue software (Carl Zeiss) and processed using Image J.^1
# HeLa cells were plated at 40,000 cells/well in an 8-well Lab-Tek chamber slide (ThermoFisher) and allowed to adhere overnight. Cells were transfected with mEGFP-HRas or mEGFP-KRas4b using Lipofectamine 2000 (ThermoFisher) according to the manufacturer's protocol. 50 mM stocks of compounds 1 and 2 were prepared by dissolving the solid compound in DMSO containing 100 mM tris(2-S 3 carboxyethyl)phosphine hydrochloride (TCEP) as a preservative. From these stocks, a solution of 200 μM [1 or 2] (with 400 μM TCEP), or 400 μM TCEP was prepared in OptiMEM media. Before imaging, cells were exchanged into OptiMEM media. The diluted solutions were added to the indicated final concentration within individual wells of the chamber slide and cells imaged while maintaining 37° C., 5% CO2 in the incubation chamber. Images were acquired in 6 different locations across a minimum of 2 independent experiments. […] An unpaired t test was performed to determine the significance of the means before and after treatment.
# [2] = target: T2, GAP43 (Homo sapiens, UniProt P17677); assay: Acyl resin-assisted capture detection of GAP43 palmitoylation in INCL lymphoblasts; settings: 0.05 μmol/10^7 cells, 24 h
# T2 construct: Western blot detection of endogenous GAP43 in acyl resin-assisted capture fractions; host or cells: INCL human lymphoblasts
# T2 sequence (P17677 1-238): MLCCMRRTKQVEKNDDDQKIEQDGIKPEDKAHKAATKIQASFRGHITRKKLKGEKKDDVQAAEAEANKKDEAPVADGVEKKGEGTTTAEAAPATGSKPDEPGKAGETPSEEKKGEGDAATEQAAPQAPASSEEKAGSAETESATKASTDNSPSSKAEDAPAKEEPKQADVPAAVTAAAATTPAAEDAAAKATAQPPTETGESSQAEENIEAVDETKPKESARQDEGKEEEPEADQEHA
# Description: INCL Lymphoblasts were adjusted to 1,000,000 cells/mL in 20 mL of OptiMem Media. Stock solutions of compounds were prepared in DMSO as before and diluted to the indicated final concentration in the cell suspension. […] Cells were pelleted by centrifugation at 1,000 rcf for 5 min and the pellet processed using a CAPTUREome S-Palmitoylated Protein Kit (Badrilla, UK) according to the manufacturer's protocol. Samples were resolved by electrophoresis using 4-20% SDS-polyacrylamide gels (Bio-Rad) under denaturing and reducing conditions. Proteins were then electrotransferred to a PVDF membrane (Bio-Rad). The membrane was blocked with 3% BSA and then subjected to immunoblot analysis using GAP-43 (B-5) Antibody (sc-17790) (Santa Cruz Biotechnology) and secondary antibody goat anti-mouse IgG HRP (ThermoFisher). Chemiluminescent detection was performed by using SuperSignal West Pico PLUS chemiluminescent substrate (ThermoFisher) according to the manufacturer's instructions.
# (§1) Assays were performed in 3 biological replicates. Each replicate involved the analysis of 4 to 5 conditions side-by-side. Western blots were analyzed using ImageJ^1. The intensity of the protein band in each cleaved bound fraction (palmitoylated protein fraction) was normalized to the intensity of the corresponding input fraction (total protein fraction). The values within individual S 4 replicates were normalized to the control or vehicle condition and reported as means±SD. An unpaired t test was performed to determine the significance between means.
# [3] = target: T3, endogenous HRas (Homo sapiens, UniProt P01112); assay: Acyl resin-assisted capture detection of HRas palmitoylation in HeLa cells; settings: for depalmitoylation of HRas: HeLa cells, 20 min, 1 at 1.25 μmol/10^7 cells, same experiments with TCEP alone or compound 2
# T3 construct: endogenous in cells; host or cells: HeLa
# Description: HeLa cells were grown to confluency in 10 cm plates. Stock solutions of compounds were prepared in DMSO as before and diluted to the final indicated concentration in 5.5 mL of OptiMEM media before adding to cells. Cells were incubated at 37° C. for 20 min and then media removed and 3 mL of HBSS added to each plate. Cells were detached using a cell scraper, pelleted by centrifugation at 1,000 rcf for 5 min and the pellet processed using a CAPTUREome S-Palmitoylated Protein Kit (Badrilla, UK) according to the manufacturer's protocol. Samples were resolved by electrophoresis using 4-20% SDS-polyacrylamide gels (Bio-Rad) under denaturing and reducing conditions. Proteins were then electrotransferred to a PVDF membrane (Bio-Rad). The membrane was blocked with 3% BSA and then subjected to immunoblot analysis using Anti-GTPase HRAS antibody (ab97488) (Abcam), Calnexin Antibody (2433S) (Cell Signaling Technology), Gα(i) Antibody (5290S) (Cell Signaling Technology), SNAP25 Antibody (5308S) (Cell Signaling Technology), Flotillin-2 Antibody (3436S) (Cell Signaling Technology), CD44 Antibody (3570S) (Cell Signaling Technology), Lyric/Metadherin Antibody (14065S) (Cell Signaling Technology), Flotillin-1 Antibody (3253S) (Cell Signaling Technology) and secondary goat anti-rabbit IgG-HRP (sc-2030) (Santa Cruz Biotechnology) or goat anti-mouse IgG HRP (ThermoFisher). Chemiluminescent detection was performed by using SuperSignal West Pico PLUS chemiluminescent substrate (ThermoFisher) according to the manufacturer's instructions.
# as §1
# T3 sequence (P01112 whole entry): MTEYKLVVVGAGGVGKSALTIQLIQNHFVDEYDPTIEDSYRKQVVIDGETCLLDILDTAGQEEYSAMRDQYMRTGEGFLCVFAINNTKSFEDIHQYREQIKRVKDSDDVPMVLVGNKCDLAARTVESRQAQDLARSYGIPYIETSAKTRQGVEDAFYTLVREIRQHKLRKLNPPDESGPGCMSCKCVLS
# T1 sequence (P01112 1-186 limits assumed): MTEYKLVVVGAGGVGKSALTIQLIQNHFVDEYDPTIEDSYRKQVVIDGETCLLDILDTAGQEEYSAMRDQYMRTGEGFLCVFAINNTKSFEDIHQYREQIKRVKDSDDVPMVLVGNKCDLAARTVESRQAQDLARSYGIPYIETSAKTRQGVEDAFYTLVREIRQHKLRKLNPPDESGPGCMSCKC
"depalmitoylation of HRas by PB alone ([3]; HeLa cells treated with PB, without 1)",SMILES,EGFP-HRas localization at the plasma membrane (fluorescence) [1],level of GAP43 palmitoylation [2],depalmitoylation of HRas [3]
,"CCCCCCCCNC(=O)[C@@H](N)CO [compound 2, H2N-L-Ser-Oct, reference compound]",no change in fluorescence localization,did not result in a significant change,no significant depalmitoylation
no significant depalmitoylation,"CCCCCCCCCC[C@@H]1C(=O)O[C@H]1CCc1ccc(OC)c(OC)c1 [PB, palmostatin B, reference compound]",,,
,"Cl.O=C(O)CCP(CCC(=O)O)CCC(=O)O [TCEP, tris(2-carboxyethyl)phosphine hydrochloride, reference compound]",no change in fluorescence localization,did not result in a significant change,no significant depalmitoylation
